Here are results for ten compounds from patent US11267826B2, “Penicillin-binding protein inhibitors” (priority 2017, dated 2022).

The test system of test [1] is hyper-permeable E. coli 901C. Briefly: Broth microdilution MIC assay, hyper-permeable E. coli. It is filed as cell-based. Conditions: Escherichia coli, read-out: E. coli 901C MIC. An outline of the steps:
(§1)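 Per CLSI: log-phase cultures (3-5 h, 37° C) seeded at 5×10^5 CFU/mL into cation-supplemented Mueller-Hinton broth containing 2-fold compound dilutions. After 16-20 h at 37° C, MIC taken visually as lowest growth-free well, for S. aureus ATCC 29213 and E. coli 901C.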

Another test concerns E. coli K12 PBP1a/b. Briefly: Bocillin FL competition binding assay, PBP1a/1b combined. Conditions: 15 min pre-incubation, PBP 1a/1b combined. Further details: species or system Escherichia coli K12. Here is the method:
(§2) To determine the ability of test compounds to bind Penicillin Binding Proteins (PBPs), a competition binding assay using Bocillin FL (fluorescent derivative of penicillin V) was adapted from the classical method used to assess PBP potency of beta-lactams.
(§3) Penicillin binding proteins were isolated from Escherichia coli K12 by growth of Escherichia coli K12 from a single colony in 4 L of Luria-Bertani (LB) broth at 35° C. and 250 rpm to an OD600 nm of 0.5. The cells were harvested by centrifugation at 7,000×g for 10 min. at 4° C. Cells were resuspended and washed in 50 mM potassium phosphate pH 7.5. The cells were re-suspended in sonication buffer [50 mM Tris-HCl pH 7.5, 1 mM MgCl2, 1 mM beta-mercaptoethanol, and 5 μg/mL DNAse I] and sonicated by 4 passes of 30 seconds at 45 W on ice. The sample was clarified by centrifugation at 3,000×g to remove cell debris and unbroken cells and supernatant containing the membrane proteins was retained. The membrane proteins including the PBPs were further purified from soluble constituents by an ultracentrifugation step at 100,000×g for 30 min. at 4° C. The membrane proteins are washed twice with 10 mM sodium phosphate pH 7, resuspended in a volume of 5 mL, quantitated by BCA assay, adjusted to […] and frozen at −80° C. until use.
(§4) The adapted Bocillin FL competition binding method described herein incorporates a 15 min. pre-incubation of test compound with isolated PBPs to attempt to balance the difference in mechanism of inhibition between beta-lactams (largely irreversible covalent bond to active site Serine) and the boron-containing PBP inhibitor test compounds (reversible covalent bond to active site Serine). Briefly, 50 μL reactions consisted of 100 μg's of total membrane protein extracts containing PBPs incubated with a dilution series of test compound ranging from 0.005 μg/mL to 2,480 μg/mL in 10 mM sodium phosphate pH7 containing 350 mM NaCl. Thirty minute reactions at 35° C. were initiated by addition of […] Bocillin FL, quenched by addition of SDS-PAGE loading buffer containing sodium dodecyl sulfate (SDS) and heated for 15 minutes at 95° C. to denature proteins in preparation for SDS-polyacrylamide gel electrophoresis. The Bocillin FL labeled PBPs are then separated by SDS-PAGE in Novex NuPage 10% Bis-Tris pre-cast gels (Invitrogen). The SDS-PAGE gel, post-electrophoresis, is then washed in water to remove excess SDS for 10 minutes at room temperature and placed on the scanning bed of a GE Healthcare/Amersham Biosciences Storm 860 fluorescence scanner. The excitation wavelength is in the blue spectrum at 450 nm and the emission at 520 nm is captured by the instrument. Effective PBP inhibitors are detected by a reduction in Bocillin FL labeling of the particular PBP over the dose range of test compound in a dose-responsive manner. High molecular weight PBP 1a/1b are not resolved by these gels, thus we report HMW PBP binding results in μg/mL for PBPs 1a/1b combined as well as for PBP2 and PBP3.
(§5) Representative results are shown in Table 2, where A represents a potency of >1000 μg/mL, B represents a potency between 64 and 1000 μg/mL inclusive, and C represents a potency of <64 μg/mL. NT=Not Tested.

The target of a further test is T1, E. coli PBP3 (Escherichia coli, UniProt P0AD68).
T1 construct: 100 μg's of total membrane protein extracts containing PBPs; endogenous in cells; host or cells: Escherichia coli K12, membrane protein fraction
As to the kind of experiment: Bocillin FL competition binding assay, PBP3. Conditions: 15 min pre-incubation. The arrangement: species or system Escherichia coli K12. On the procedure: as §2, §3, §4, §5

The target of the next test is T2, E. coli PBP2 (Escherichia coli, UniProt P0AD65).
T2 construct: 100 μg's of total membrane protein extracts containing PBPs; endogenous in cells; host or cells: Escherichia coli K12, membrane protein fraction
As to the kind of experiment: Bocillin FL competition binding assay, PBP2. The conditions noted are these: 15 min pre-incubation. The arrangement: species or system Escherichia coli K12. Here is the method:
as §2, §3, §4, §5

Another test concerns S. aureus ATCC 29213. Briefly: Broth microdilution MIC assay, S. aureus. The class given is cell-based. Conditions: Staphylococcus aureus, ATCC29213; broth microdilution, 16-20 hours at 37° C.; read-out: S. aureus 29213 MIC. Summed up: as §1

T1 sequence (P0AD68 1-577): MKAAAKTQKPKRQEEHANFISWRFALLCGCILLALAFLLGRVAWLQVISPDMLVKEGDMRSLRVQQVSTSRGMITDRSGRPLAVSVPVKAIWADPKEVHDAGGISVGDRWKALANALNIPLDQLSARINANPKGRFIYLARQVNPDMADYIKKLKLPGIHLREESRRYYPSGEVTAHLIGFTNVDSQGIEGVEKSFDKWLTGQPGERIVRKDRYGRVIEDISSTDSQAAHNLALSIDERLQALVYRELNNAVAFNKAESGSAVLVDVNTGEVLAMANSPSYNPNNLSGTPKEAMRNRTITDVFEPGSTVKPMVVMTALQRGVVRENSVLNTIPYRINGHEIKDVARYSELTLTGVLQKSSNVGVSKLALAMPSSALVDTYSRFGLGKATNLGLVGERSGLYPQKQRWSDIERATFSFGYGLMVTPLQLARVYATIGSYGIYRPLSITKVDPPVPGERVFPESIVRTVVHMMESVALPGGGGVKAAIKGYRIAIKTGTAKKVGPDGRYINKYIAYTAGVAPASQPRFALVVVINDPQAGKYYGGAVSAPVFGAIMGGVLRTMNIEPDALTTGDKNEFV
T2 sequence (P0AD65 whole entry): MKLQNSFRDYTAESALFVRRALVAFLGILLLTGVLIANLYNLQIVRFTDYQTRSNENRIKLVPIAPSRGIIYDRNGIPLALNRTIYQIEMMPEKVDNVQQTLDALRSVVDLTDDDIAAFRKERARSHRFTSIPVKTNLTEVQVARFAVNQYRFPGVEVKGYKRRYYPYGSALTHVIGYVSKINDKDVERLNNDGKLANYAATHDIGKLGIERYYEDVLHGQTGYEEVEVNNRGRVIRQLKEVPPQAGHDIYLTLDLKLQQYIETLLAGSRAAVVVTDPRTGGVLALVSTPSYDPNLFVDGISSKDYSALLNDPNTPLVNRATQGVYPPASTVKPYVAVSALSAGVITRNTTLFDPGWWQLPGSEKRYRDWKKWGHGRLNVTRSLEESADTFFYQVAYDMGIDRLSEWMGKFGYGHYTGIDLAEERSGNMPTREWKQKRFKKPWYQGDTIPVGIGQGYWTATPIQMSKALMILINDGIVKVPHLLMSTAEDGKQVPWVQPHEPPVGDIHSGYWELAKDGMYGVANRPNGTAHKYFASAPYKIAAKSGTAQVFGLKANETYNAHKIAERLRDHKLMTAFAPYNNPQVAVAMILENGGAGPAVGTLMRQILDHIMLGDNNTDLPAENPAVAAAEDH

In the case of `NCCCCCNC(=O)CO/N=C(\C(=O)N[C@H]1Cc2cccc(C(=O)O)c2OB1O)c1csc(N)n1` [Example 67, (R,Z)-3-(2-((2-((5-aminopentyl)amino)-2-oxoethoxy)imino)-2-(2-aminothiazol-4-yl)acetamido)-2-hydroxy-3,4-dihydro-2H-benzo[e][1,2]oxaborinine-8-carboxylic Acid], the MIC (in general, the smallest concentration in the dilution series that meets the test's criterion for growth inhibition) in test [1] was under 64 µg/mL; with S. aureus ATCC 29213, over 128 µg/mL. The “E. coli K12 PBP1a/b Potency” value with E. coli K12 PBP1a/b was “B (B represents a potency between 64 and 1000 μg/mL inclusive)”. The “E. coli PBP3 Potency” value at E. coli PBP3 is recorded as “C (C represents a potency of <64 μg/mL)”. At E. coli PBP2, the “E. coli PBP2 Potency” value was “B (B represents a potency between 64 and 1000 μg/mL inclusive)”.

Turning to `N=C(N)c1ccc(OCCO/N=C(\C(=O)N[C@H]2Cc3cccc(C(=O)O)c3OB2O)c2csc(N)n2)cc1` [Example 55, (R,Z)-3-(2-(2-aminothiazol-4-yl)-2-((2-(4-carbamimidoylphenoxy)ethoxy)imino)acetamido)-2-hydroxy-3,4-dihydro-2H-benzo[e][1,2]oxaborinine-8-carboxylic Acid], the MIC was under 64 µg/mL in test [1] and over 128 µg/mL in the test on S. aureus ATCC 29213. In the test with E. coli K12 PBP1a/b, the “E. coli K12 PBP1a/b Potency” value is on record as “C (C represents a potency of <64 μg/mL)”. Also, the “E. coli PBP3 Potency” value at E. coli PBP3 is “C (C represents a potency of <64 μg/mL)”. In addition, the “E. coli PBP2 Potency” value on E. coli PBP2 was “B (B represents a potency between 64 and 1000 μg/mL inclusive)”.

Take `CNC(=O)C(C)(C)O/N=C(\C(=O)N[C@H]1Cc2cccc(C(=O)O)c2OB1O)c1csc(N)n1` [Example 69, (R,Z)-3-(2-(2-aminothiazol-4-yl)-2-(((2-methyl-1-(methylamino)-1-oxopropan-2-yl)oxy)imino)acetamido)-2-hydroxy-3,4-dihydro-2H-benzo[e][1,2]oxaborinine-8-carboxylic Acid]: the results for the MIC (in test [1]; in the test with S. aureus ATCC 29213) were under 64 µg/mL and over 128 µg/mL, respectively. Besides, the “E. coli K12 PBP1a/b Potency” value with E. coli K12 PBP1a/b is reported as “C (C represents a potency of <64 μg/mL)”. Further, the “E. coli PBP3 Potency” value at E. coli PBP3 is listed as “C (C represents a potency of <64 μg/mL)”. Besides, the “E. coli PBP2 Potency” value on E. coli PBP2 was “C (C represents a potency of <64 μg/mL)”.

`CNC(=O)CO/N=C(\C(=O)N[C@H]1Cc2cccc(C(=O)O)c2OB1O)c1csc(N)n1` [Example 57, (R,Z)-3-(2-(2-aminothiazol-4-yl)-2-((2-(methylamino)-2-oxoethoxy)imino)acetamido)-2-hydroxy-3,4-dihydro-2H-benzo[e][1,2]oxaborinine-8-carboxylic Acid]: the MIC is under 64 µg/mL in test [1] and over 128 µg/mL in the test on S. aureus ATCC 29213. Besides, the “E. coli K12 PBP1a/b Potency” value in the test with E. coli K12 PBP1a/b is reported as “C (C represents a potency of <64 μg/mL)”. The “E. coli PBP3 Potency” value on E. coli PBP3 is recorded as “C (C represents a potency of <64 μg/mL)”. Further, the “E. coli PBP2 Potency” value at E. coli PBP2 was “B (B represents a potency between 64 and 1000 μg/mL inclusive)”.

In the case of `Nc1nc(/C(=C/c2cccnc2)C(=O)N[C@H]2Cc3cccc(C(=O)O)c3OB2O)cs1` [Example 87, (R,Z)-3-(2-(2-aminothiazol-4-yl)-3-(pyridin-3-yl)acrylamido)-2-hydroxy-3,4-dihydro-2H-benzo[e][1,2]oxaborinine-8-carboxylic Acid], the MIC in test [1] was under 64 µg/mL; in the test with S. aureus ATCC 29213, 64 to 128 µg/mL. In the test on E. coli K12 PBP1a/b, the “E. coli K12 PBP1a/b Potency” value is reported as “A (A represents a potency of >1000 μg/mL)”. Besides, on E. coli PBP3, the “E. coli PBP3 Potency” value is “B (B represents a potency between 64 and 1000 μg/mL inclusive)”. Also, the “E. coli PBP2 Potency” value at E. coli PBP2 is “B (B represents a potency between 64 and 1000 μg/mL inclusive)”.

`CC(C)(O/N=C(\C(=O)N[C@H]1Cc2cccc(C(=O)O)c2OB1O)c1csc(N)n1)C(=O)N[C@@H](CO)C(=O)O` [Example 74, (R)-3-((Z)-2-(2-aminothiazol-4-yl)-2-(((1-(((S)-1-carboxy-2-hydroxyethyl)amino)-2-methyl-1-oxopropan-2-yl)oxy)imino)acetamido)-2-hydroxy-3,4-dihydro-2H-benzo[e][1,2]oxaborinine-8-carboxylic Acid]: the minimum inhibitory concentration (MIC) in test [1] is under 64 µg/mL; with S. aureus ATCC 29213 it was over 128 µg/mL. Moreover, in the test on E. coli K12 PBP1a/b, the “E. coli K12 PBP1a/b Potency” value was “C (C represents a potency of <64 μg/mL)”. Also, the “E. coli PBP3 Potency” value on E. coli PBP3 was “C (C represents a potency of <64 μg/mL)”. In addition, at E. coli PBP2, the “E. coli PBP2 Potency” value was “C (C represents a potency of <64 μg/mL)”.

Consider `Nc1nc(/C(=N/OCCOc2ccccc2)C(=O)N[C@H]2Cc3cccc(C(=O)O)c3OB2O)cs1` [Example 50, (R,Z)-3-(2-(2-aminothiazol-4-yl)-2-((2-phenoxyethoxy)imino)acetamido)-2-hydroxy-3,4-dihydro-2H-benzo[e][1,2]oxaborinine-8-carboxylic Acid], for which the MIC in test [1] is under 64 µg/mL; in the test with S. aureus ATCC 29213 it was 64 to 128 µg/mL. Moreover, the “E. coli K12 PBP1a/b Potency” value in the test with E. coli K12 PBP1a/b is “B (B represents a potency between 64 and 1000 μg/mL inclusive)”. Also, the “E. coli PBP3 Potency” value at E. coli PBP3 is “B (B represents a potency between 64 and 1000 μg/mL inclusive)”. Further, at E. coli PBP2, the “E. coli PBP2 Potency” value was “B (B represents a potency between 64 and 1000 μg/mL inclusive)”.

Consider `Nc1nc(/C(=N/OCC(=O)N2CCNCC2)C(=O)N[C@H]2Cc3cccc(C(=O)O)c3OB2O)cs1` [Example 58, (R,Z)-3-(2-(2-aminothiazol-4-yl)-2-((2-oxo-2-(piperazin-1-yl)ethoxy)imino)acetamido)-2-hydroxy-3,4-dihydro-2H-benzo[e][1,2]oxaborinine-8-carboxylic Acid], for which the figures for the MIC (in test [1]; in the test on S. aureus ATCC 29213) were under 64 µg/mL and over 128 µg/mL, respectively. For the same compound, in the test on E. coli K12 PBP1a/b, the “E. coli K12 PBP1a/b Potency” value was “B (B represents a potency between 64 and 1000 μg/mL inclusive)”. Also, the “E. coli PBP3 Potency” value at E. coli PBP3 was “C (C represents a potency of <64 μg/mL)”. Besides, the “E. coli PBP2 Potency” value at E. coli PBP2 is given as “C (C represents a potency of <64 μg/mL)”.

Consider `N#CC1CCC(NC(=O)CO/N=C(\C(=O)N[C@H]2Cc3cccc(C(=O)O)c3OB2O)c2csc(N)n2)CC1` (stereo partly drawn) [Example 62, (R)-3-((Z)-2-(2-aminothiazol-4-yl)-2-((2-(((1r,4R)-4-cyanocyclohexyl)amino)-2-oxoethoxy)imino)acetamido)-2-hydroxy-3,4-dihydro-2H-benzo[e][1,2]oxaborinine-8-carboxylic Acid], for which the MIC in test [1] is under 64 µg/mL; with S. aureus ATCC 29213, over 128 µg/mL. In the test on E. coli K12 PBP1a/b, the “E. coli K12 PBP1a/b Potency” value is “B (B represents a potency between 64 and 1000 μg/mL inclusive)”. The “E. coli PBP3 Potency” value on E. coli PBP3 is “C (C represents a potency of <64 μg/mL)”. The “E. coli PBP2 Potency” value at E. coli PBP2 was “B (B represents a potency between 64 and 1000 μg/mL inclusive)”.

As for `N#Cc1ccc(OCCO/N=C(\C(=O)N[C@H]2Cc3cccc(C(=O)O)c3OB2O)c2csc(N)n2)cc1` [Example 46, (R,Z)-3-(2-(2-aminothiazol-4-yl)-2-((2-(4-cyanophenoxy)ethoxy)imino)acetamido)-2-hydroxy-3,4-dihydro-2H-benzo[e][1,2]oxaborinine-8-carboxylic Acid], the figures for the MIC (in test [1]; in the test with S. aureus ATCC 29213) were under 64 µg/mL and 64 to 128 µg/mL, respectively. In addition, in the test on E. coli K12 PBP1a/b, the “E. coli K12 PBP1a/b Potency” value is reported as “C (C represents a potency of <64 μg/mL)”. The “E. coli PBP3 Potency” value at E. coli PBP3 was “B (B represents a potency between 64 and 1000 μg/mL inclusive)”. Further, the “E. coli PBP2 Potency” value at E. coli PBP2 is “C (C represents a potency of <64 μg/mL)”.
